Assay results from patent publication US20220388962A1 (Biohaven Therapeutics Ltd., priority 2019, published 2022).
pIC50: −log10 of the molar value. Structures can show the parent of a compound that is named as a salt.

biological target: T1, TDP-43 (Homo sapiens, UniProt Q13148); assay: TDP-43-DNA alpha-screen assay (bt-TAR-32 displacement); type: binding; conditions: bt-TAR-32 0.125 nM, 15 ng/ml TDP-43
Procedure, shortened: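 GST-TDP-43 (15 ng/ml final) on anti-GST acceptor beads pre-incubated 30 min at 23 °C with compound (50 to 0.02 μM, half-log) in 25 mM Tris pH 7.4, 0.1% BSA, 0.1% Triton X-100. Biotinylated TAR-32 DNA (0.125 nM final) on streptavidin donor beads added, 90 min at 23 °C dark; AlphaScreen signal fitted for IC50.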

T1 sequence (Q13148 whole entry): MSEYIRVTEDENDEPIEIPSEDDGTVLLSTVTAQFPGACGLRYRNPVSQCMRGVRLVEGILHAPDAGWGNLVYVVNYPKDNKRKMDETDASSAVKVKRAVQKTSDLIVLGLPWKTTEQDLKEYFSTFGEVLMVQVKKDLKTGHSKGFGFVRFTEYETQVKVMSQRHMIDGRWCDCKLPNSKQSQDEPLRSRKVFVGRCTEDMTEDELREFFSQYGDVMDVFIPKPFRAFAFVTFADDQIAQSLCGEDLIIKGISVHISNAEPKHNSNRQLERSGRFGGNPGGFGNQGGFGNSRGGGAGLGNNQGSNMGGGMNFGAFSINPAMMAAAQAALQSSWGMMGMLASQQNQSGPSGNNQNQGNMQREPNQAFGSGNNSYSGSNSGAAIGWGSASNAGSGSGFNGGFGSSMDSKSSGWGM

With COc1ccc(-c2cc(NCCC3CCCCN3CCCN3C(=O)c4ccccc4C3=O)c3ccccc3n2)cc1 (stereo not shown) [Example 67, 2-(3-(2-(2-((2-(4-Methoxyphenyl)quinolin-4-yl)amino)ethyl)piperidin-1-yl)propyl) isoindoline-1,3-dione] as the compound, how does the pIC50 read?
The pIC50 was 6.54.

With COc1cc2nccc(NCCCN(C)CCCN)c2cc1OC [Example 146] as the compound, how does the pIC50 read?
Its pIC50 is 6.39.

With COc1ccc(-c2cc(NCCCN3CC4CCNCC4C3)c3ccccc3n2)cc1 (stereo not shown) [Example 36, N-(3-(Hexahydro-1H-pyrrolo[3,4-c]pyridin-2(3H)-yl)propyl)-2-(4-methoxyphenyl)quinolin-4-amine dihydrochloride] as the compound, how does the pIC50 read?
The pIC50 was 6.82.

With COc1ccc(-c2cc(NCCN3CCN(C)CC3)c3ccccc3n2)cc1 [Example 74, 2-(4-Methoxyphenyl)-N-(2-(4-methylpiperazin-1-yl)ethyl)quinolin-4-amine] as the compound, how does the pIC50 read?
The pIC50 was 5.73.

With COc1ccc(-c2cc(NCCCN3CC4CNCC4C3)c3ccccc3n2)cc1 (stereo not shown) [Example 23, N-(3-(Hexahydropyrrolo[3,4-c]pyrrol-2(1H)-yl)propyl)-2-(4-methoxyphenyl) quinolin-4-amine] as the compound, how does the pIC50 read?
Its pIC50 is 6.62.

With CC(C)C(N)C(=O)NC(C(=O)NC(C(=O)N1CCN(c2ccc(-c3cc(NCCCN(C)C)c4ccccc4n3)cc2)CC1)C(C)C)C(C)C (stereo not shown) [Example 106] as the compound, how does the pIC50 read?
Its pIC50 is 6.62.

With CN(C)CCCNc1cc(-c2cnn(C3CCN(C)CC3)c2)nc2ccccc12 [Example 107] as the compound, how does the pIC50 read?
Its pIC50 is 6.59.

With COc1ccc(-c2cc(NCC3CCCN(CCCN)C3)c3ccccc3n2)cc1 (stereo not shown) [Example 56, N-((1-(3-Aminopropyl)piperidin-3-yl)methyl)-2-(4-methoxyphenyl)quinolin-4-amine] as the compound, how does the pIC50 read?
Its pIC50 is 6.52.

With COc1ccc(-c2cc(NCCCN(C)CCCN)c3ccccc3n2)cc1 [Example 3, N^1-(3-Aminopropyl)-N^3-(2-(4-methoxyphenyl)quinolin-4-yl)-N^1-methylpropane-1,3-diamine] as the compound, how does the pIC50 read?
The pIC50 was 7.10.

With COc1ccc(-c2cc(NCCCN(C)C)c3c(F)cccc3n2)cc1 [Example 133] as the compound, how does the pIC50 read?
Its pIC50 is 5.54.

With NCCCNc1cc(-c2cnn(CCN3CCOCC3)c2)nc2ccccc12 [Example 134] as the compound, how does the pIC50 read?
Its pIC50 is 5.53.

With COc1cc2nc(-c3ccc(N4CCNCC4)cc3)cc(NCCCN(C)C)c2cc1OC [Example 87, N-(3-(dimethylamino)propyl)-6,7-dimethoxy-2-(4-(piperazin-1-yl)phenyl)quinolin-4-amine] as the compound, how does the pIC50 read?
Its pIC50 is 7.30.

With NCCCNc1cc(C2=CCCCC2)nc2ccccc12 [Example 128] as the compound, how does the pIC50 read?
Its pIC50 is 5.80.

With COc1ccc(-c2cc(NCCCNC3CCC4CN(Cc5ccccc5)CC43)c3ccccc3n2)cc1 (stereo not shown) [Example 70, N^1-(2-Benzyloctahydrocyclopenta[c]pyrrol-4-yl)-N^3-(2-(4-methoxyphenyl)quinolin-4-yl)propane-1,3-diamine trihydrochloride] as the compound, how does the pIC50 read?
The pIC50 was 6.77.

With COc1ccc(-c2cc(N[C@H]3CC[C@H](N)CC3)c3cc(OC)c(OC)cc3n2)cc1 [Example 101] as the compound, how does the pIC50 read?
Its pIC50 is 6.77.

With COc1ccc(-c2cc(NCCCN(C)CCCN)c3cc(OC)ccc3n2)cc1 [Example 9, N^1-(3-Aminopropyl)-N^3-(6-methoxy-2-(4-methoxyphenyl)quinolin-4-yl)-N^1-methylpropane-1,3-diamine] as the compound, how does the pIC50 read?
The pIC50 was 7.30.

With COc1ccc(-c2cc(NCCCN(C)CCCN)c3c(F)cccc3n2)cc1 [Example 7, N^1-(3-aminopropyl)-N^3-(5-fluoro-2-(4-methoxyphenyl)quinolin-4-yl)-N^1-methyl propane-1,3-diamine] as the compound, how does the pIC50 read?
The pIC50 was 6.66.

With COc1ccc(-c2cc(NCCCNS(=O)(=O)c3ccc(-c4nn[nH]n4)cc3)c3ccccc3n2)cc1 [Example 49, N-(3-((2-(4-Methoxyphenyl)quinolin-4-yl)amino)propyl)-4-(2H-tetrazol-5-yl)benzene sulfonamide] as the compound, how does the pIC50 read?
Its pIC50 is 5.14.

same assay, conditions: side-by-side, three independent assays, bt-TAR32; average

Which “increase in potency versus (XXVIII), average” value does the source give for COc1ccc(-c2cc(NCCCN(C)CCCN)c3ccccc3n2)cc1 [Example 3, N^1-(3-Aminopropyl)-N^3-(2-(4-methoxyphenyl)quinolin-4-yl)-N^1-methylpropane-1,3-diamine] here?
Its value is 14 ×.

same assay, conditions: side-by-side, three independent assays, bt-TAR32; range

For COc1ccc(-c2cc(NCCCN(C)CCCN)c3ccccc3n2)cc1 [Example 3, N^1-(3-Aminopropyl)-N^3-(2-(4-methoxyphenyl)quinolin-4-yl)-N^1-methylpropane-1,3-diamine], which “increase in potency versus (XXVIII)” value is on record?
The value was 11-18 ×.

biological target: T1, TDP-43; assay: not given; conditions: using bt-(TG)6, not bt-TAR32; cited from earlier work

For COc1ccc(-c2cc(NCCCN(C)C)c3ccccc3n2)cc1 [(XXVIII)], which “activity in TDP-43 alpha-screen” value is on record?
The value was “active”.

biological target: T1, TDP-43; assay: not given; conditions: previously reported; cited from earlier work

Which “caspase-7 cleavage of TDP-43” value does the source give for COc1ccc(-c2cc(NCCCN(C)C)c3ccccc3n2)cc1 [(XXVIII)] here?
Its value is “promoted caspase-7 cleavage of TDP-43”.
